Source: publication PMC5290327, “SC83288 is a clinical development candidate for the treatment of severe malaria” (Nature Communications, 2017)
Values joined by “and” are separate entries in the source; they are usually repeats but may differ in a detail not shown here. Identical values can stand only once. Like-named read-outs stand apart in the source and are kept apart here.

Assays:
PK study [1] = type: in vivo, rat; conditions: rat i.v. 2 mg kg^−1; for half-life: rat, 2 mg/kg
Procedure: (§1) On the treatment day, all animals were weighed and the dosing volume was calculated for each individual animal according to its actual body weight. All animal were dosed once. Blood samples were taken at different time points and plasma was collected after centrifugation (10,000g, 10 min, 4 °C). Plasma samples were analysed by LC–MS/MS. […] All relevant observations were recorded. The PK studies in cynomolgus monkeys and beagle dogs were performed by the Laboratory of Pharmacology and Toxicology (LPT), Hamburg, and PK and toxicity studies in mice and rats were performed by the 4SC Discovery GmbH, Munich. PK parameters were obtained by a non-compartment analysis, using Kinetica 4.1 (Thermo Scientific).

PK study [2] = type: in vivo, cynomolgus; conditions: for half-life: 2 mg/kg
Procedure: as §1

[3] = Plasma protein binding, rapid equilibrium dialysis; type: in vitro ADME; conditions: 10 μM
Procedure: The study was carried out by Novamass Ltd (Oulu, Finland). The plasma protein binding of SC83288 was determined in human rat, mouse and cynomolgus plasma, using a method based on rapid equilibrium dialysis and LC/MS/MS analysis. Briefly, plasma from the different species was incubated with a final concentration of SC83288 of 10 μM for 4 h at 37 °C in a rapid equilibrium dialysis device. Proteins were then precipitated by acetonitrile addition containing a phenacetin internal standard. After centrifugation (10,000g) the supernatants were analysed by LC/MS/MS to obtain the protein unbound fraction of the analyte substance.

P. falciparum strain 3D7 = test: Efficacy in the Pf/NSG mouse model; type: in vivo, Plasmodium falciparum; conditions: 3D7, humanized NSG mouse
AKT3 = target: T1, AKT3 (Homo sapiens, UniProt Q9Y243); test: KINOMEscan; type: binding; conditions: read-out: Remaining enzyme activity
T1 construct: purchased Ambit (DiscoverX) KINOMEscan; Cerep
T1 sequence (Q9Y243 whole entry): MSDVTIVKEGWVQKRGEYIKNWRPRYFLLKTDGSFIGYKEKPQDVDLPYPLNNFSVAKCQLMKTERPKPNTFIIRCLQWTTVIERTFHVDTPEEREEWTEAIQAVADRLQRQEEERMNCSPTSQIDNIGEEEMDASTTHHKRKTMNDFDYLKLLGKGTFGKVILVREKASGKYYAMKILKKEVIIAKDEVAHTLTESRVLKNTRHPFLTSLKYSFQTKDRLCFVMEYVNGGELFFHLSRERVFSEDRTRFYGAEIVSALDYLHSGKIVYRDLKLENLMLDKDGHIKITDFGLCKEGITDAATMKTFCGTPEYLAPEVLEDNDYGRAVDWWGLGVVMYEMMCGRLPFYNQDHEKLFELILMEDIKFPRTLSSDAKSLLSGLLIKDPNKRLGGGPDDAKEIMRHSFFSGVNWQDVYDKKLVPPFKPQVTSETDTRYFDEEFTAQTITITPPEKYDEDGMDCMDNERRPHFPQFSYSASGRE
Procedure, shortened: (§2)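 Each kinase, tagged with DNA, is partitioned between test compound and an immobilized active-site ligand; qPCR of the eluate reports the bound fraction. SC81458 dosed once, 10 μM final concentration.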

ALK = target: T2, ALK (Homo sapiens, UniProt Q9UM73); test: KINOMEscan; type: binding; conditions: read-out: Remaining enzyme activity
T2 construct: purchased Ambit (DiscoverX) KINOMEscan; Cerep
Procedure, shortened: as §2

BMPR2 = target: T3, BMPR2 (Homo sapiens, UniProt Q13873); test: KINOMEscan; type: binding; conditions: read-out: Remaining enzyme activity
T3 construct: purchased Ambit (DiscoverX) KINOMEscan; Cerep
Procedure, shortened: as §2

CAMK2a = target: T4, CAMK2a (Homo sapiens, UniProt Q9UQM7); test: KINOMEscan; type: binding; conditions: read-out: Remaining enzyme activity
T4 construct: purchased Ambit (DiscoverX) KINOMEscan; Cerep
T4 sequence (Q9UQM7 whole entry): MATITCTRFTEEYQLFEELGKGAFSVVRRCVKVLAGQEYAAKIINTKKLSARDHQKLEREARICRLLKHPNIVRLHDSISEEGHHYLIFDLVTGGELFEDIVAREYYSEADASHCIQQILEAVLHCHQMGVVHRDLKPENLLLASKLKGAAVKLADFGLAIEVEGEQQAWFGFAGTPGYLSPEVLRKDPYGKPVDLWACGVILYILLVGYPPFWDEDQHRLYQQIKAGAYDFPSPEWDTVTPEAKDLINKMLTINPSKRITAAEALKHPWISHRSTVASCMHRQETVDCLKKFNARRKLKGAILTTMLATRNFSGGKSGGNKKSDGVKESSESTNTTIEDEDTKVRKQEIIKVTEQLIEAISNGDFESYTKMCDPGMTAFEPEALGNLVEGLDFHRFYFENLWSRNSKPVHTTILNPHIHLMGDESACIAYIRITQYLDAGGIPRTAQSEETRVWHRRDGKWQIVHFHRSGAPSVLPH
Procedure, shortened: as §2

CAMK2b = target: T5, CAMK2b (Homo sapiens, UniProt Q13554); test: KINOMEscan; type: binding; conditions: read-out: Remaining enzyme activity
T5 construct: purchased Ambit (DiscoverX) KINOMEscan; Cerep
Procedure, shortened: as §2

EPHA1 = target: T6, EPHA1 (Homo sapiens, UniProt P21709); test: KINOMEscan; type: binding; conditions: read-out: Remaining enzyme activity
T6 construct: purchased Ambit (DiscoverX) KINOMEscan; Cerep
Procedure, shortened: as §2

EPHB1 = target: T7, EPHB1 (Homo sapiens, UniProt P54762); test: KINOMEscan; type: binding; conditions: read-out: Remaining enzyme activity
T7 construct: purchased Ambit (DiscoverX) KINOMEscan; Cerep
Procedure, shortened: as §2

EPHB4 = target: T8, EPHB4 (Homo sapiens, UniProt P54760); test: KINOMEscan; type: binding; conditions: read-out: Remaining enzyme activity
T8 construct: purchased Ambit (DiscoverX) KINOMEscan; Cerep
Procedure, shortened: as §2

GCN2(kin.Dom.2, S808G) = target: T9, GCN2(kin.Dom.2, S808G) (Homo sapiens, UniProt Q9P2K8, S808G); test: KINOMEscan; type: binding; conditions: read-out: Remaining enzyme activity
T9 construct: GCN2(kin.Dom.2, S808G); purchased Ambit (DiscoverX) KINOMEscan; Cerep
T9 sequence (Q9P2K8 590-1001 S808G limits assumed): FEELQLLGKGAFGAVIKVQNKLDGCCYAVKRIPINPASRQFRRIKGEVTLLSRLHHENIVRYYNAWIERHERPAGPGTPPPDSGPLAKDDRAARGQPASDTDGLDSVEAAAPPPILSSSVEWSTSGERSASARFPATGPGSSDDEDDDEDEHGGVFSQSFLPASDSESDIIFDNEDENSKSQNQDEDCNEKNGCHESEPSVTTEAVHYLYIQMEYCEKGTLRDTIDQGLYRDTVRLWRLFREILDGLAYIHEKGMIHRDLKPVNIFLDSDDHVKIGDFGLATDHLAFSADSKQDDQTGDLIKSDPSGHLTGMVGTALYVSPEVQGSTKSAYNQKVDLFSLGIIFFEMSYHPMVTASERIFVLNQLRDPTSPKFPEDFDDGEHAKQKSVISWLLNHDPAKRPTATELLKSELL
Procedure, shortened: as §2

LCK = target: T10, LCK (Homo sapiens, UniProt P06239); test: KINOMEscan; type: binding; conditions: read-out: Remaining enzyme activity
T10 construct: purchased Ambit (DiscoverX) KINOMEscan; Cerep
T10 sequence (P06239 whole entry): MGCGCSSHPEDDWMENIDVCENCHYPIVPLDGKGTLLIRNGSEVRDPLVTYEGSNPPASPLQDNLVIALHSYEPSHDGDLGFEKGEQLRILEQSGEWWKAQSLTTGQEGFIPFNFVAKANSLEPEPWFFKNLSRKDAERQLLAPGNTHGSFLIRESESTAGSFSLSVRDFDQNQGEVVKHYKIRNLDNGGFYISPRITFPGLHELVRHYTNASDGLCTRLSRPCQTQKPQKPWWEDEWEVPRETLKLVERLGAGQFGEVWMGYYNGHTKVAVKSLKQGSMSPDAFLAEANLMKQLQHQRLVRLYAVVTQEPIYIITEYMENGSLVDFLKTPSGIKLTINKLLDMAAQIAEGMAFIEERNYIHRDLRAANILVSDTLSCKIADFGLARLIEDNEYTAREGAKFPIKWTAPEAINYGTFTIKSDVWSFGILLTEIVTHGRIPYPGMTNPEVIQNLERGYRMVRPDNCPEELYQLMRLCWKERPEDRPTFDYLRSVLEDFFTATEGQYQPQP
Procedure, shortened: as §2

MUSK = target: T11, MUSK (Homo sapiens, UniProt O15146); test: KINOMEscan; type: binding; conditions: read-out: Remaining enzyme activity
T11 construct: purchased Ambit (DiscoverX) KINOMEscan; Cerep
T11 sequence (O15146 24-869): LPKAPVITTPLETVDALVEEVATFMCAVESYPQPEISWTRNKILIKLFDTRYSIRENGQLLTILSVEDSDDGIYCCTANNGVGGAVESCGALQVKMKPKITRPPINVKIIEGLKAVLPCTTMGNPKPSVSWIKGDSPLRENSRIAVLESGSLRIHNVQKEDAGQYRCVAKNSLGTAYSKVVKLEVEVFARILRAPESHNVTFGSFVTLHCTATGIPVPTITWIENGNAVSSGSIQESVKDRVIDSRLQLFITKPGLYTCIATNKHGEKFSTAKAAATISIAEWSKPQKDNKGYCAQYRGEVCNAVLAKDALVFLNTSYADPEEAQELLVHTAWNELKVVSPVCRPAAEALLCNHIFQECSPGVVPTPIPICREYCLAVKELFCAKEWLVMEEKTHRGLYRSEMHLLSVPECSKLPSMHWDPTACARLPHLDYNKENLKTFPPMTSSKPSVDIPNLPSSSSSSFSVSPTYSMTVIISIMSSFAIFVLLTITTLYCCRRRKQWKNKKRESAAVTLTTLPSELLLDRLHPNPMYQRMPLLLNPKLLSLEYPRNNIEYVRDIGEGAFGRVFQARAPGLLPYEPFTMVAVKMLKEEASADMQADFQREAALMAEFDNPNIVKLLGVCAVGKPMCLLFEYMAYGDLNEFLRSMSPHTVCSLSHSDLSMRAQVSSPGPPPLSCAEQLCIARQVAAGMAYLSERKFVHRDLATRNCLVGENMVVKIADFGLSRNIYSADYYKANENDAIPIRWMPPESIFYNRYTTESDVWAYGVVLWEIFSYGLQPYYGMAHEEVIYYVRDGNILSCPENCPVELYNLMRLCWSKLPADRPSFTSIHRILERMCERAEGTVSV
Procedure, shortened: as §2

MYLK = target: T12, MYLK (Homo sapiens, UniProt Q15746); test: KINOMEscan; type: binding; conditions: read-out: Remaining enzyme activity
T12 construct: purchased Ambit (DiscoverX) KINOMEscan; Cerep
T12 sequence (Q15746 whole entry): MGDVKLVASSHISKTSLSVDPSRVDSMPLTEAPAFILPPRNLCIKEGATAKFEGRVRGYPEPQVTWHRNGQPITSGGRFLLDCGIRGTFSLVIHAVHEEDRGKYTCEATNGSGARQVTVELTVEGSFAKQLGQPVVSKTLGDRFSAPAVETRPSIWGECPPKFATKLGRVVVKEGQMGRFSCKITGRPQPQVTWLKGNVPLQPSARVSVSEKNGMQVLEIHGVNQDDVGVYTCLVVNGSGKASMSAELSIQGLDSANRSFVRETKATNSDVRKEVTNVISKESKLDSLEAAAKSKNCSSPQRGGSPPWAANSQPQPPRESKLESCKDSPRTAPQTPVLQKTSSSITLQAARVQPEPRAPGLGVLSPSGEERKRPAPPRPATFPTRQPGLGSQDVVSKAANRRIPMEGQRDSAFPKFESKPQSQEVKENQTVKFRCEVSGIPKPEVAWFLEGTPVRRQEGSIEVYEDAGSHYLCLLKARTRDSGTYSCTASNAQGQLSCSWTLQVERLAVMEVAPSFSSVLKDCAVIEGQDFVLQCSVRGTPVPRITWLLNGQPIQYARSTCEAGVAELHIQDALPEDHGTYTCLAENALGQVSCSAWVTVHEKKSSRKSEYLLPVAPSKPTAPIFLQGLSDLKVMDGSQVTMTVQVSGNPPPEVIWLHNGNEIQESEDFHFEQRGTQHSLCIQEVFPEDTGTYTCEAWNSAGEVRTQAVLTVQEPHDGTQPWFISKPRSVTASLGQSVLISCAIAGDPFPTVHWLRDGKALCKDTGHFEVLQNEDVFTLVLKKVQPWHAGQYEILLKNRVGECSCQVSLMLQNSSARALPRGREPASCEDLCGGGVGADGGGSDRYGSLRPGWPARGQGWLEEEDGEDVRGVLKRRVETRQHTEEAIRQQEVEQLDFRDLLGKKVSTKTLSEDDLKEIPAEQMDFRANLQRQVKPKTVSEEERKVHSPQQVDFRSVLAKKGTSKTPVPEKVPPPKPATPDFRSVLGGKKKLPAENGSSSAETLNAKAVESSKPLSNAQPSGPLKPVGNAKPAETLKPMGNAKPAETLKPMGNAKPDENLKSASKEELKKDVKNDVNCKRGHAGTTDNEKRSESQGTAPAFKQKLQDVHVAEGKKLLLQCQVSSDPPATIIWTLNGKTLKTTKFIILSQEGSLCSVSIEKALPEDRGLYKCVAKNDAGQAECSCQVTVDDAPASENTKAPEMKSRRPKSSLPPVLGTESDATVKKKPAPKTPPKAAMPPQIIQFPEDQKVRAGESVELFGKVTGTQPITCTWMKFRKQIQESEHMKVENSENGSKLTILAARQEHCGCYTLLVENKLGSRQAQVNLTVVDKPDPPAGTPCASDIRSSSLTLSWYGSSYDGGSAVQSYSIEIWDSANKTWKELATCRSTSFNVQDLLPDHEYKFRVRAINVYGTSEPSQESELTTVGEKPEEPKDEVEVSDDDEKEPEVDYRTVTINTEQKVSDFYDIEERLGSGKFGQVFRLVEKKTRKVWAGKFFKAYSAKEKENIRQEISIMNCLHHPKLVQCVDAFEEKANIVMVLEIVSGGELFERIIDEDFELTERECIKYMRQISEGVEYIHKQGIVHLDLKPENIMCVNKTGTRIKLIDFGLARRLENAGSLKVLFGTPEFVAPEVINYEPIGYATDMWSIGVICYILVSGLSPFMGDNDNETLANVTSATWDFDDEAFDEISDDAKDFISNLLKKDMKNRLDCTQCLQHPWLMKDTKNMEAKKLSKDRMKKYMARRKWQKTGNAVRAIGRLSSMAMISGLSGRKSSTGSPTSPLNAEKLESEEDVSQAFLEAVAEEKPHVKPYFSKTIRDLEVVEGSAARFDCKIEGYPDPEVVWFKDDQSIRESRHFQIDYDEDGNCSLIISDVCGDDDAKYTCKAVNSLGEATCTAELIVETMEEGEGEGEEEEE
Procedure, shortened: as §2

NDR1 = target: T13, NDR1 (Homo sapiens, UniProt Q15208); test: KINOMEscan; type: binding; conditions: read-out: Remaining enzyme activity
T13 construct: purchased Ambit (DiscoverX) KINOMEscan; Cerep
Procedure, shortened: as §2

FLT3(ITD) = test: KINOMEscan; type: binding, human; conditions: 10 μM
Procedure: The KINOMEscan was carried out by Ambit (San Diego, USA) according to a previously established protocol. The experiment was based on a competition binding assay that quantitatively measures the ability of a compound to compete with an immobilized, active-site directed ligand. The assay is performed by combining three components: DNA-tagged kinase; immobilized ligand; and a test compound. The ability of the test compound to compete with the immobilized ligand is measured via quantitative PCR of the DNA tag.
For most assays, kinase-tagged T7 phage strains were grown in parallel in 24-well blocks in an Escherichia coli host derived from the BL21 strain. E. coli were grown to log-phase and infected with T7 phage from a frozen stock and incubated with shaking at 32 °C until lysis (90–150 min). The lysates were centrifuged (6,000g) and filtered (0.2 μm) to remove cell debris. The remaining kinases were produced in HEK-293 cells (Sigma Aldrich, catalogue number: 85120602) and subsequently tagged with DNA for quantitative PCR detection. […] The liganded beads were blocked with excess biotin and washed with blocking buffer (SeaBlock (Pierce), 1% bovine serum albumin, 0.05% Tween 20 and 1 mM dithiothreitol) to remove unbound ligand and to reduce non-specific phage binding. […] The kinase concentration in the eluates was measured by quantitative PCR.

[4] = cynomolgus monkey, plasma, iv, cynomolgus i.v. 2 mg kg^−1

COC(=O)N1CCN(C(=N)c2cccc(NC(=O)Nc3ccc(S(=O)(=O)NCc4ccc(S(N)(=O)=O)cc4)cc3)c2)CC1 [SC83288, methyl 4-(imino(3-(3-(4-(N-(4-sulfamoylbenzyl)sulfamoyl)phenyl)ureido)phenyl)methyl) piperazine-1-carboxylate]
AUC(0-inf) (PK study [1]; plasma, iv): 1420 ng·h/mL | C0 (PK study [1]; plasma, iv): 4380 ng/mL | Cmax (PK study [1]; plasma, iv): 3280 ng/mL | Tmax (PK study [1]; plasma, iv): 5 min | clearance (PK study [1]; plasma, iv): 23.5 mL/min/kg | MRT last (PK study [1]; plasma, iv, read-out: MRT0-t): 75 min | VC (PK study [1]): 0.457 L/kg | half-life (PK study [1]; plasma, iv, read-out: t1/2 effective): 52 min | half-life (PK study [1]; plasma, iv, read-out: t1/2 initial): 9 min | half-life (PK study [1]; plasma, iv, read-out: t1/2 terminal): 625 min | half-life (PK study [2]; cynomolgus monkey, plasma, iv, cynomolgus i.v. 2 mg kg^−1, read-out: t1/2 effective): 62 min | half-life (PK study [2]; cynomolgus monkey, plasma, iv, cynomolgus i.v. 2 mg kg^−1, read-out: t1/2 initial): 16 min | half-life (PK study [2]; cynomolgus monkey, plasma, iv, cynomolgus i.v. 2 mg kg^−1, read-out: t1/2 terminal): 320 min | AUC(0-inf) (PK study [2]; [4]): 4250 ng·h/mL | C0 (PK study [2]; [4]): 7340 ng/mL | Cmax (PK study [2]; [4]): 6570 ng/mL | Tmax (PK study [2]; [4]): 5 min | clearance (PK study [2]; [4]): 7.83 mL/min/kg | MRT last (PK study [2]; cynomolgus monkey, plasma, iv, cynomolgus i.v. 2 mg kg^−1, read-out: MRT0-t): 90 min | C0 as multiple of the free MPC (PK study [2]; cynomolgus, i.v. 2 mg kg^−1): ~17 times | VC (PK study [2]; cynomolgus, i.v. 2 mg kg^−1): 0.273 L/kg | Bound fraction ([3]; cynomolgus plasma): 82 ± 2.8% and 82% | Bound fraction ([3]; human plasma): 78 ± 1.3% and 78% | Bound fraction ([3]; mouse plasma): 89 ± 2.2% and 89% | Bound fraction ([3]; rat plasma): 80 ± 0.6%

CCCCN1CCN(C(=N)c2cccc(NC(=O)Nc3ccc(S(=O)(=O)NCc4ccc(S(N)(=O)=O)cc4)cc3)c2)CC1 [SC81458, 4-(3-(3-((4-butylpiperazin-1-yl)(imino)methyl)phenyl)ureido)-N-(4-sulfamoylbenzyl) benzenesulfonamide]
In vivo logPRR (P. falciparum strain 3D7): 3.2 | remaining binding at 10 µM (AKT3): 66% | remaining binding at 10 µM (ALK): 100% | remaining binding at 10 µM (BMPR2): 100% | remaining binding at 10 µM (CAMK2a): 100% | remaining binding at 10 µM (CAMK2b): 100% | remaining binding at 10 µM (EPHA1): 91% | remaining binding at 10 µM (EPHB1): 84% | remaining binding at 10 µM (EPHB4): 100% | remaining binding at 10 µM (GCN2(kin.Dom.2, S808G)): 100% | remaining binding at 10 µM (LCK): 100% | remaining binding at 10 µM (MUSK): 95% | remaining binding at 10 µM (MYLK): 95% | remaining binding at 10 µM (NDR1): 100% | Remaining enzyme activity (FLT3(ITD)): 85%
